Test results from patent publication US20220235094A1, “CRYSTALLINE FORMS OF ANTIDEPRESSANT DRUG SAGE-217 AND PREPARATION METHOD THEREFOR” (priority 2019, published 2022).
“Also recorded” adds a separate entry of the source.

What was measured:
[1] = DVS test (moisture adsorption isotherm, hygroscopicity); format: physicochemical
Description: The sample of crystalline form 04 prepared in Example 1 was placed on a microbalance plate in a sealed sample chamber, and then exposed to different relative humidity, the relative humidity ranged from […] to 90%, and changed in 10% increments. At each humidity level, the sample is balanced when dm/dt is less than 0.002% within 10 minutes. The mass of the dried sample and the equilibrium mass at each humidity level were recorded, and the weight change was plotted against relative humidity, which is the moisture adsorption isotherm of the sample.
Regarding the description of hygroscopicity characteristics and the definition of hygroscopic weight gain (Appendix XIX J of Chinese Pharmacopoeia 2010 Edition, Guidelines for Hygroscopicity, with experimental conditions: 25±1° C., 80% relative humidity):
Deliquescent: sufficient water is absorbed to form liquid
Extremely hygroscopic: the increase in mass is not less than 15%
Hygroscopic: the increase in mass is less than 15% but not less than 2%
Slightly hygroscopic: the increase in mass is less than 2% but not less than 0.2%
Practical nonhygroscopic: the increase in mass is less than 0.2%.

[2] = Crystalline form stability under different temperature and humidity conditions; format: physicochemical
Description: The samples of crystalline form 04 prepared in Example 1 were taken, and placed at 25° C./60% humidity and 40° C./75% humidity for 1 month; placed at 2-8° C. for 9 months: after the placement, the above-mentioned samples were taken out and tested for the crystalline form.

[3] = Thermodynamic solubility test in water; format: physicochemical; conditions: 25° C., 24 hours; for Area: HPLC
Description: Thermodynamic solubility test: the solid powder was added to water to a saturated solution, and then the suspension liquid was stirred under magnetic stirring at 25° C. for 24 hours. After completion, it was filtered with a 0.20 μm filter and analyzed by HPLC. Tests were carried out in parallel, and each group was tested twice to take the average.

[4] = Mechanical pressure stability, XRPD after 2 tons of pressure; format: physicochemical; conditions: 2 tons of mechanical pressure; for XRPD change after mechanical pressure: 100 mg sample
Description: To further evaluate the mechanical stability of the crystalline form 04 of the present application and the crystalline form K reported in WO 2018/039378 A1, a 100 mg sample was subjected to 2 tons of mechanical pressure, and the recovered tablets were gently ground and tested by XRPD.

[5] = Crystalline form stability as exposed powder and in sealed vial; conditions: for crystalline form stability in a sealed vial: 25° C./45% RH
[6] = Stability compared between crystalline forms

Row | Compound | Crystalline form after storage ([2]; 0-8° C., 9 months) | Crystalline form after storage ([2]; 2-8° C., 9 months) | Concentration (thermodynamic solubility) ([3]; Average) [µg/mL] | Concentration (thermodynamic solubility) ([3]; Group 1) [µg/mL] | Concentration (thermodynamic solubility) ([3]; Group 2) [µg/mL] | Area ([3]; Average) [mAu*s] | Area ([3]; Group 1) [mAu*s] | Area ([3]; Group 2) [mAu*s] | XRPD change after mechanical pressure [4] | crystalline form stability in a sealed vial [5] | time stable in the exposed powder state [5] [h] | stability compared with other crystalline forms [6] | also measured
1 | C[C@@]1(O)CC[C@H]2[C@H](CC[C@@H]3[C@@H]2CC[C@]2(C)[C@@H](C(=O)Cn4cc(C#N)cn4)CC[C@@H]32)C1 [crystalline form 04, 1-(2-((3R,5R,8R,9R,10S,13S,14S,17S)-3-hydroxy-3,13-dimethylhexadecahydro-1H-cyclopenta[a]phenanthren-17-yl)-2-oxoethyl)-1H-pyrazole-4-carbonitrile] | the crystalline form remains | form 04 | 0.4375 | 0.4506 | 0.4243 | 12.2 | 12.6 | 11.8 | no obvious change | more than seven days | – | – | hygroscopicity ([1]; DVS curve): no or almost no hygroscopicity; also recorded: no hygroscopicity; water absorption ([1]; DVS, 25° C., relative humidity changed from 40%/0 to 90%): 0.06%; Crystalline form after storage ([2]; 25° C., 60% relative humidity, 1 month): stored stably for one month without change; also recorded: form 04; Crystalline form after storage ([2]; 40° C., 75% relative humidity, 1 month): stored stably for one month without change; also recorded: form 04; mechanical / physical stability compared with crystalline form K [4]: better than that of the crystalline form K; also recorded: better mechanical stress stability; time stable in the exposed powder state ([5]; time in words): one day
2 | C[C@@]1(O)CC[C@H]2[C@H](CC[C@@H]3[C@@H]2CC[C@]2(C)[C@@H](C(=O)Cn4cc(C#N)cn4)CC[C@@H]32)C1 [crystalline form 06, 1-(2-((3R,5R,8R,9R,10S,13S,14S,17S)-3-hydroxy-3,13-dimethylhexadecahydro-1H-cyclopenta[a]phenanthren-17-yl)-2-oxoethyl)-1H-pyrazole-4-carbonitrile] | – | – | – | – | – | – | – | – | – | more than seven days | 16 | – | –
3 | C[C@@]1(O)CC[C@H]2[C@H](CC[C@@H]3[C@@H]2CC[C@]2(C)[C@@H](C(=O)Cn4cc(C#N)cn4)CC[C@@H]32)C1 [crystalline form 08, 1-(2-((3R,5R,8R,9R,10S,13S,14S,17S)-3-hydroxy-3,13-dimethylhexadecahydro-1H-cyclopenta[a]phenanthren-17-yl)-2-oxoethyl)-1H-pyrazole-4-carbonitrile] | – | – | – | – | – | – | – | – | – | – | – | relatively low stability | –
4 | C[C@@]1(O)CC[C@H]2[C@H](CC[C@@H]3[C@@H]2CC[C@]2(C)[C@@H](C(=O)Cn4cc(C#N)cn4)CC[C@@H]32)C1 [crystalline form D-1, 1-(2-((3R,5R,8R,9R,10S,13S,14S,17S)-3-hydroxy-3,13-dimethylhexadecahydro-1H-cyclopenta[a]phenanthren-17-yl)-2-oxoethyl)-1H-pyrazole-4-carbonitrile] | the crystalline form remains | the crystalline form did not change | – | – | – | – | – | – | – | more than seven days | 18 | better stability than crystalline form D | –
5 | C[C@@]1(O)CC[C@H]2[C@H](CC[C@@H]3[C@@H]2CC[C@]2(C)[C@@H](C(=O)Cn4cc(C#N)cn4)CC[C@@H]32)C1 [crystalline form D-2, 1-(2-((3R,5R,8R,9R,10S,13S,14S,17S)-3-hydroxy-3,13-dimethylhexadecahydro-1H-cyclopenta[a]phenanthren-17-yl)-2-oxoethyl)-1H-pyrazole-4-carbonitrile] | – | – | – | – | – | – | – | – | – | more than seven days | 18 | better stability than crystalline form D | –
6 | C[C@@]1(O)CC[C@H]2[C@H](CC[C@@H]3[C@@H]2CC[C@]2(C)[C@@H](C(=O)Cn4cc(C#N)cn4)CC[C@@H]32)C1 [crystalline form K, 1-(2-((3R,5R,8R,9R,10S,13S,14S,17S)-3-hydroxy-3,13-dimethylhexadecahydro-1H-cyclopenta[a]phenanthren-17-yl)-2-oxoethyl)-1H-pyrazole-4-carbonitrile, reference compound] | – | – | 0.398 | 0.3927 | 0.4032 | 11.1 | 10.9 | 11.2 | a slight decrease in its crystallinity | – | – | – | –
